According to patent US20090304744A1, “METHODS OF ENHANCING IMMUNE RESPONSE IN THE INTRADERMAL COMPARTMENT AND COMPOUNDS USEFUL THEREOF” (priority 2003, published 2009):
Where two headings read alike, the source gives them in different places.

Tests used:
[1] = test system: influenza antigen (Influenza APR834); assay type: in vivo, Balb/c mice; settings: ID; for Trend in immune response as indicated by ELISA signal (1:123 serum screening dilution): mice
[2] = test system: Influenza A/Panama/2007/99 (H3N2); experiment: HAI assay after ID microneedle immunization of rats with FLUZONE +/- Tween 80; assay type: in vivo, Brown Norway rats; settings: for % Seroconversion (HAI Titre ≧ 10) / % Seroprotection (HAI Titre ≧ 40): day 21, Tween 80 at 5% where added
Description: Measurement of HA specific Antibody Titer by HAI: Sera were collected and used as test samples. Fresh cRBC reagent was prepared daily. Sodium Chloride solution (0.9%) was added to wells of a Falcon® Non-Tissue Culture Treated Plate, 96 well, U-Bottom with Low Evaporation Lid. Viral lysate stock (8 HA/50 μl) was added to wells. Appropriate volume of test serum was added to a single row or column of “start wells,” and a serial dilution was performed by transferring 50 μl of the serum dilution from the “start wells” into the next well, creating a 1:2 dilution. When completed, wells contained a serial serum dilution and a constant amount of viral lysate antigen, being 4 HA per well. cRBC reagent (0.5%, 50 μl) was added to each well, including negative control wells, which contained no HA. The assay was allowed to incubate for 45 minutes at room temperature, ensuring that the plate is not jostled. For determination, plates were tilted at a 70-degree angle for 5 minutes, and viewed on alight box.
HAI assays were performed with A-New Caledonia (H1N1), A-Panama (H3N2) and B-Hong Kong antigen as single test antigens and trivalent pools.
Female Brown Norway (BN) rats (n=10/group) were immunized by ID delivery using Microneedles (34 gauge needle inserted into a 3.5″ long catheter to an exposed needle length of 1.0 mm). ID delivery by Microneedles consisted of 2 bolus injections of 100 μl by hand to either side of the lower back of the rat, approximately 10 seconds in duration (each bolus), using an attached 1 cc syringe. Rats were immunized with either of two different doses of the 2003/2004 season of FLUZONE™ (Aventis Pasteur, Swiftwater, Pa.), for a total of 9µg (high dose) or 0.9µg (low dose) hemagglutinin (HA) per rat, 3µg or 0.3µg HA of each strain of influenza in the vaccine (A/New Calcdonia/20/99 H1N1, A/Panama/2007/99H3N2, and B/Hong Kong/1434/2002).
The rats were bled 21 days after immunization and their serum assayed for neutralizing antibody titres using the hemagglutination inhibition (HAI) assay, and for influenza-specific antibody titres by ELISA. Both assays were performed against the H3N2 strain of influenza in the FLUZONE™ formulation to characterize the immune response.

[3] = test system: Influenza A/Panama/2007/99 (H3N2); experiment: Influenza-specific ELISA titre after ID microneedle immunization of rats with FLUZONE +/- Tween 80; assay type: in vivo, Brown Norway rats; settings: 5% Tween80 added to low or high dose FLUZONE
Description: Antibody response to FLUZONE™ was measured by coating an influenza antigen (Influenza APR834, purified/inactivated at 2 mg/mL from Charles River SPAFAS or Alternatively New Calcdonia, Panama or B-Hong Kong lysates from Biodesign Inc.) on a microtiter plate (96-well NUNC IMMUNO-PLATE™ with MAXISORP™ surface). The coating solution was approximately 3.8µg/mL of influenza protein in carbonate buffer (Sigma Chemical Co. Cat. C3041). The coating antigen was exposed to the Nunc plate for one hour at 37° C. The coating solution was discarded and replaced with a blocking solution (phosphate buffered saline with Tween™ 20 (PBS-TW20); Sigma Chemical Co. Cat. P-3563) and 5% w/v nonfat dry milk. The blocking solution was exposed to the plate surface for two hours at 37° C. The blocking solution was subsequently discarded.
Female Brown Norway (BN) rats (n=10/group) were immunized by ID delivery using Microneedles (34 gauge needle inserted into a 3.5″ long catheter to an exposed needle length of 1.0 mm). ID delivery by Microneedles consisted of 2 bolus injections of 100 μl by hand to either side of the lower back of the rat, approximately 10 seconds in duration (each bolus), using an attached 1 cc syringe. […]

[4] = test system: trivalent test antigen (New Calcdonia, Panama and B-Hong Kong); set-up: species or system Hartley Guinea Pigs; settings: guinea pig, in vivo
[5] = test system: guinea pig skin; experiment: Guinea pig erythema Draize scoring after ID delivery of excipients; assay type: in vivo, Hartley guinea pigs; settings: Tween 80 5%, Deoxycholate 0.1%, D-sorbitol 5%, Lutrol 15%; without antigen, 50 ul per injection, 34 gauge 1.0 mm; immediate, 1 h and 24 h readings
Excerpt: The methods of the invention provide fundamental principles and guidelines whereby optimum parameters may be determined for delivering immunogenic compositions to the dermal compartment (including epidermal and intradermal compartments) wherein the excipients have optimum adjuvant properties and the formulations of the invention have enhanced efficacy in comparison to when the same formulation is delivered using conventional modes of delivery, including intramuscular and subcutaneous delivery. The invention provides methods wherein the formulations of the invention have been screened to have optimum concentration ranges for delivery to the optimum depth of the intradermal compartment such that they have adjuvant properties, resulting in one or more of the following properties: minimal to no skin irritation as determined and assessed using conventional modes of analysis of skin reactions using visual methods such as Draize scoring (For a typical draize scoring analysis see table below); minimal to no hemolysis as determined using standard methods known in the art, and enhanced immune response as measured by enhanced seroconversion and/or enhanced antibody titers.
Erythema Draize scores for various excipients were determined using procedures described in Section 5.4, above. In one study, Tween™ 80 (5%), Deoxycholate (0.1%), D-sorbitol (5%) or Lutrol™ (15%) was administered (50 μl per injection) without the antigen to Hartley guinea pigs using 34 gauge, 1.0 mm needles. […] Deeper administrations will be necessary for deoycholate to be used reliably at this concentration. From left to right, the reading immediately after administration, the one-hour reading and the 24-hour reading.

[6] = test system: RBCs; experiment: Hemolysis in blood of swine after ID Tween 80; assay type: in vivo, Yorkshire swine; settings: 6 x 200 ul doses containing 5.0% Tween 80, 31 g x 1.5 mm needle, blood from systemic circulation
Description: Tween™ 80 Preferred concentrations avoid hemolysis: Surfactants/detergents can lyse RBCs. Blood from Yorkshire swine that received 6×200 ul doses containing 5.0% Tween™ 80 were collected. No hemolysis was observed was in blood taken immediately from the systemic circulation. A 31 g× 1.5 mm needle was used in the study.

[7] = test system: intradermal tissue; experiment: Excipient operating profile: maximum concentration with Draize score of 2 or less vs tissue depth (slope m)
Excerpt: The preferred excipients of the invention have a common operating profile in the intradermal space defined by a slope (m) value of greater than 0.125. An exemplary profile for determining the optimal operating profile is depicted in FIG. 35. The slope identifies the change in maximum operating concentration as it relates to tissue depth within the intradermal compartment. […] The concentration of excipient at the first reference point is the highest concentration at the shallowest delivery depth that allows a draize score of 2 or less. […] The concentration of excipient at the second reference point is the highest concentration at the deepest delivery depth that allows a draize score of 2 or less. For example, the distance between the first and second delivery depth can be 2 mm apart and specifically 1 mm and 3 mm deliveries. The operating slope (m) can be described by the following formula: […]
Where C2 equals Cinfinity at D2
Where C1 equals maximum excipient concentration at D1 with a Draize score of 2 or less
Where Dn denotes delivery depth
Tween™ 80 matches the preferred excipient profile. FIG. 35 illustrates an excipient selected for the intradermal tissue according to the instant invention. Tween™ 80 has a profile similar to the “Excipient-A” in the illustration having a slope greater than 0.125. Whereby a 5% v/v soln of Tween™ 80 is at the maximum operating concentration at 1.0 mm depth, and can be used successfully at 10% v/v at the 3 mm depth.

[8] = test system: swine skin

CCCCCCCC/C=C\CCCCCCCC(=O)OCCOCC(OCCO)C1OCC(OCCO)C1OCCO (centres unmarked) [Tween 80, polysorbate 80]
immune response compared to commercial trivalent vaccine delivered IM ([1]; Tween 80 0.9% V/V with trivalent vaccine, 34 g x 1 mm needle, murine model): higher mean titers, higher median titers and higher seroconversion | seroconversion ([1]; Tween 80 at 5% + FLUZONE, Balb/c mice, ELISA with PR8 test antigen): 100% | Trend in immune response as indicated by ELISA signal (1:123 serum screening dilution) ([1]; excipient 0.1% w/v with FLUZONE): 0.829 | Trend in immune response as indicated by ELISA signal (1:123 serum screening dilution) ([1]; excipient 0.3% w/v with FLUZONE): 1.599 | Trend in immune response as indicated by ELISA signal (1:123 serum screening dilution) ([1]; excipient 0.9% w/v with FLUZONE): 2.647 | increase of mean HAI titre relative to ID delivery of FLUZONE alone ([2]; 5% Tween80 added to low or high dose FLUZONE, ID, rats, H3N2): 5 fold | % Seroconversion (HAI Titre ≧ 10) ([2]; IDHigh (9 ug HA per rat)): 100% | % Seroprotection (HAI Titre ≧ 40) ([2]; IDHigh (9 ug HA per rat)): 100% | % Seroconversion (HAI Titre ≧ 10) ([2]; IDLow (0.9 ug HA per rat)): 100% | % Seroprotection (HAI Titre ≧ 40) ([2]; IDLow (0.9 ug HA per rat)): 90% | increase of mean ELISA titre relative to ID delivery of FLUZONE alone [3]: up to 15 fold | hemagglutin specific titer vs FLUZONE alone ID and FLUZONE alone IM [4]: outperformed | Erythema Draize scores (tolerability) [5]: reasonably well-tolerated | hemolysis [6]: No hemolysis | maximum operating concentration ([7]; 1.0 mm depth): 5 % v/v | concentration that can be used successfully ([7]; 3 mm depth): 10 % v/v | slope (maximum acceptable conc./tissue depth) ([7]; intradermal tissue, 1.0 mm vs 3 mm depth): greater than 0.125 | draize score ([8]; 2% Tween 80, 3.0 mm delivery, approximately 20-24 hours after administration, Yorkshire swine): 0.0 | tolerability in the ID space ([8]; 5% Tween 80, swine, 31 g 1.5 mm needle): well tolerated | tolerability ([8]; 10%, delivered to 1-2 mm depth, Yorkshire swine): not well tolerated | Erythema Draize scores (tolerability) ([8]; Tween 80 5%, Deoxycholate 0.1%, D-sorbitol 5%, Lutrol 15%, without antigen, 200 ul per injection, 31 gauge 1.5 mm, 1 h and 24 h readings): reasonably well-tolerated | erythema ([8]; in vivo): moderate to severe erythema | skin reactions as a function of needle depth ([8]; in vivo): improved with depth
